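1) Cells in 96-well plates. 2) Compound, 48 h, 5 concentrations. 3) Linear interpolation between surrounding doses. 4) Unreached endpoint = highest concentration. The concentration for 50% growth inhibition is given as GI50.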 Activity calls are given as the source filed them. Rule as the data show it: active = GI50 up to about 1.1 µM and inactive = higher.
Experiments:
Assay in all cases: NCI anticancer screen, dose series, 48 h
HOP-62 = tested on: HOP-62
U-251 = tested on: U-251
HCT-116 = tested on: HCT-116
OVCAR-5 = tested on: OVCAR-5
SF-295 = tested on: SF-295
HOP-18 = tested on: HOP-18
OVCAR-3 = tested on: OVCAR-3
XF498 = tested on: XF498
SNB-78 = tested on: SNB-78
SF-268 = tested on: SF-268
K562 = tested on: K562
RXF 393 = tested on: RXF 393
DMS-273 = tested on: DMS-273
M14 = tested on: M14
SK-OV-3 = tested on: SK-OV-3
SNB-19 = tested on: SNB-19
HOP-92 = tested on: HOP-92
786-0 = tested on: 786-0
T47D = tested on: T47D

Measured: GI50

N#CCCOCN(CO)c1nc(N(CO)COCCC#N)nc(N(CO)COCCC#N)n1
inactive: HOP-62 > 100 µM | U-251 > 100 µM | HCT-116 25.7 µM | OVCAR-5 35.2 µM | SF-295 21.7 µM | HOP-18 24.3 µM | OVCAR-3 25.7 µM | XF498 17.5 µM | SNB-78 79.4 µM | SF-268 23.1 µM | K562 25 µM | RXF 393 20.9 µM | DMS-273 18.7 µM | M14 21 µM | SK-OV-3 > 100 µM | SNB-19 53.6 µM | HOP-92 23.4 µM

CCOP(=O)(OCC)C1CCCOC1=O (configuration not stated)
inactive: HOP-62 > 100 µM | U-251 > 100 µM | HCT-116 > 100 µM | OVCAR-5 > 100 µM | SF-295 > 100 µM | HOP-18 > 100 µM | OVCAR-3 > 100 µM | XF498 > 100 µM | SNB-78 > 100 µM | SF-268 > 100 µM | K562 > 100 µM | RXF 393 > 100 µM | 786-0 > 100 µM | DMS-273 > 100 µM | M14 > 100 µM | SK-OV-3 > 100 µM | SNB-19 > 100 µM

CCCCc1c2c(nc3c1CCC/C3=C\c1ccccc1)C(=O)CCC2
inactive: HOP-62 20.9 µM | U-251 15.2 µM | HCT-116 20 µM | OVCAR-5 19.5 µM | SF-295 21.2 µM | HOP-18 25.6 µM | OVCAR-3 15.1 µM | XF498 12.1 µM | SNB-78 19.6 µM | SF-268 21.3 µM | K562 18.2 µM | RXF 393 17 µM | 786-0 25.2 µM | DMS-273 26.1 µM | M14 21.1 µM | SK-OV-3 24.8 µM | SNB-19 20.1 µM | HOP-92 22 µM

Cc1cc2c(C)nn(Cc3ccc(Cl)cc3)c2c(C#N)c1C
inactive: HOP-62 > 100 µM | U-251 > 100 µM | HCT-116 > 100 µM | OVCAR-5 > 100 µM | SF-295 46.2 µM | HOP-18 > 100 µM | OVCAR-3 > 100 µM | XF498 39.1 µM | SNB-78 > 100 µM | SF-268 > 100 µM | RXF 393 45.9 µM | 786-0 63.2 µM | DMS-273 > 100 µM | SK-OV-3 > 100 µM | SNB-19 63.5 µM | HOP-92 35.6 µM

c1cncc(CSc2nc3ccccc3nc2-c2cccs2)c1
inactive: HOP-62 71.3 µM | HCT-116 > 100 µM | OVCAR-5 > 100 µM | SF-295 > 100 µM | HOP-18 > 100 µM | OVCAR-3 20.9 µM | XF498 35.3 µM | SNB-78 > 100 µM | SF-268 7.71 µM | K562 39.8 µM | 786-0 58.2 µM | DMS-273 > 100 µM | M14 92.5 µM | SNB-19 77.6 µM

COc1cc(-c2cc(=O)c3ccccc3o2)ccc1N
inactive: HOP-62 41 µM | U-251 > 100 µM | HCT-116 54.3 µM | OVCAR-5 84.7 µM | SF-295 46.7 µM | HOP-18 27.5 µM | OVCAR-3 62.8 µM | XF498 24 µM | SNB-78 > 100 µM | SF-268 26.8 µM | K562 60.8 µM | RXF 393 41 µM | 786-0 > 100 µM | DMS-273 50.2 µM | M14 > 100 µM | SK-OV-3 > 100 µM | SNB-19 43.4 µM | HOP-92 33.8 µM

CO/N=C(/C(=O)Nc1c[n+](CC(=O)[O-])cs1)c1csc(N)n1
inactive: U-251 > 100 µM | HCT-116 > 100 µM | OVCAR-5 > 100 µM | SF-295 > 100 µM | HOP-18 > 100 µM | OVCAR-3 > 100 µM | XF498 > 100 µM | SNB-78 > 100 µM | SF-268 > 100 µM | K562 > 100 µM | 786-0 > 100 µM | DMS-273 > 100 µM | M14 > 100 µM | SK-OV-3 > 100 µM | SNB-19 > 100 µM | HOP-92 > 100 µM

N#CC(Cl)CS(=O)(=O)c1ccccc1 (configuration not stated)
inactive: HOP-62 > 44.6 µM | U-251 19.3 µM | HCT-116 4.34 µM | OVCAR-5 20.3 µM | SF-295 18.7 µM | T47D 2.85 µM | HOP-18 8.61 µM | OVCAR-3 2.71 µM | XF498 2.62 µM | SNB-78 21.1 µM | SF-268 11 µM | K562 1.97 µM | RXF 393 2.35 µM | 786-0 16.8 µM | M14 4.76 µM | SK-OV-3 19.5 µM | SNB-19 18.9 µM | HOP-92 2.02 µM

Clc1ccc(-c2nnc(-c3nn(-c4ccccc4)c4nc5ccccc5nc34)o2)cc1
inactive: HOP-62 > 100 µM | U-251 84.7 µM | HCT-116 35.9 µM | OVCAR-5 > 100 µM | SF-295 > 100 µM | HOP-18 > 100 µM | OVCAR-3 34.1 µM | XF498 13 µM | SNB-78 > 100 µM | SF-268 69.3 µM | K562 38.2 µM | RXF 393 93.3 µM | 786-0 > 100 µM | DMS-273 47.5 µM | M14 48.3 µM | SK-OV-3 > 100 µM | SNB-19 > 100 µM

COc1ccc(C2ON(c3ccccn3)CC=C2C)cc1 (configuration not stated)
inactive: HOP-62 > 100 µM | U-251 > 100 µM | OVCAR-5 36.5 µM | SF-295 > 100 µM | HOP-18 > 100 µM | OVCAR-3 > 100 µM | XF498 > 100 µM | SNB-78 > 100 µM | SF-268 > 100 µM | K562 > 100 µM | RXF 393 > 100 µM | 786-0 > 100 µM | DMS-273 > 100 µM | M14 > 100 µM | SK-OV-3 > 100 µM | SNB-19 > 100 µM

C(=C\C(Sc1ccccc1)c1ccccc1)/NNC1=NN=C(c2ccccc2)C(c2ccccc2)N1 (configuration not stated)
inactive: HOP-62 16.5 µM | U-251 30 µM | HCT-116 42.2 µM | OVCAR-5 35.5 µM | SF-295 32.7 µM | HOP-18 > 100 µM | OVCAR-3 33.4 µM | XF498 77.1 µM | SNB-78 > 100 µM | SF-268 > 100 µM | K562 13.1 µM | 786-0 65.2 µM | DMS-273 44.6 µM | M14 75 µM | SK-OV-3 > 100 µM | SNB-19 48.6 µM | HOP-92 16.3 µM

CC1CCC2(NC1)OC1CC3[C@@H]4CC=C5C=CCC[C@]5(C)C4CC[C@]3(C)C1C2C (some centres not stated)
inactive: HOP-62 18.6 µM | U-251 28.3 µM | HCT-116 17.7 µM | OVCAR-5 23.6 µM | SF-295 23.3 µM | HOP-18 32.2 µM | OVCAR-3 24.9 µM | XF498 17.6 µM | SNB-78 39.4 µM | SF-268 28.6 µM | K562 18.5 µM | RXF 393 18.8 µM | 786-0 16.6 µM | DMS-273 > 10 µM | M14 22.4 µM | SK-OV-3 25.8 µM | SNB-19 38.5 µM | HOP-92 19.7 µM

— ChEMBL document CHEMBL1201862, “PubChem BioAssay data set” (2004)
